{"source": "patent EP3848017A1", "about": "“ORAL CARE COMPOSITION CONTAINING INDOLE COMPONENTS FOR TREATING CARIES” (3M Innovative Properties Company, priority 2020, dated 2021)", "data": [{"test_system": "in vitro human saliva microcosm biofilm", "experiment": "Determination of Lactic Acid Release (LAR) after Permanent Exposure Procedure (LDH-NAD-PMS-MTT enzyme assay)", "type": "cell-based", "settings": "Indole 0.07 wt.% in MCM-1% sucrose, about 26 hours biofilm growth, 37 °C, vs untreated control TC0, negative number = release of lactic acid reduced", "experimental": "(§1) To determine the metabolic activity of the biofilm sample, the accumulation of lactic acid in the supernatant (1.0 ml PBS-solution with 5% sucrose per each biofilm sample disc) was measured by using the Lactic acid dehydrogenase (LDH)- Nicotinamide-adenine-dinucleotide (NAD)-Phenazine Methosulphate (PMS) - Thiazolyl blue tetrazolium bromide (MTT) - enzyme assay. To ensure that only freshly produced lactic acid is determined, the biofilm samples were washed four times with 1.0 ml PBS solution for 30 sec each. After 30 min the accumulated amount of lactic acid in the supernatant was measured by analyzing 50 µl of the supernatant. The lactic acid was quantified by the lactic acid specific enzyme assay described above. Known correlation between measured enzyme activity and amount of lactic acid was used to translate measured enzyme activity into the amount of lactic acid present in sample of the supernatant. In accordance to the validation of the in vitro human saliva microcosm biofilm model, a compound should lower the lactic acid release in permanent application of at least 40 or at least 50 % in comparison to the untreated biofilm control. […] Bovine sample disks of about 10 x 10 mm (+/- 2mm) were incubated in a 24 well plate containing 1.8 ml medium in an incubator at 37°C and 60 rpm circular movement. The treatment composition described below were added by pipetting and removed by a suction pump. • Day 1: Four-hours inoculation of bovine sample disks with saliva-mcm media (MCM = mucine containing medium plus 1 % sucrose) at 37 °C (without active substance). • Fresh medium (MCM-1% sucrose) containing the respective amounts of indole component as given in Table 2. This Treatment Composition was used for another 3-hour incubation. • Fresh medium (MCM-1% sucrose and Treatment Composition) for storage for about 14h at 37 °C. • Day 2: Fresh medium (MCM-1% sucrose and Treatment Composition) for 2-hour incubation. • Fresh medium (MCM-1% sucrose and Treatment Composition) for another 2-hour incubation. […]", "units": {"inhibition at 0.07 %": "%"}, "values": [{"molecule": "COc1ccc2[nH]cc(CC(=O)O)c2c1", "note": "[TC2 - IA2, 5-Methoxy-3-Indoleacetic acid]", "inhibition at 0.07 %": 87.8}]}, {"test_system": "in vitro human saliva microcosm biofilm", "experiment": "Determination of Lactic Acid Release (LAR) after Permanent Exposure Procedure (LDH-NAD-PMS-MTT enzyme assay)", "type": "cell-based", "settings": "Indole 0.073 wt.% in MCM-1% sucrose, about 26 hours biofilm growth, 37 °C, vs untreated control TC0, negative number = release of lactic acid reduced", "experimental": "as §1", "units": {"inhibition at 0.073 %": "%"}, "values": [{"molecule": "O=C(O)CCc1c[nH]c2ccccc12", "note": "[TC1 - IA1, Indole-3-propionic acid]", "inhibition at 0.073 %": 95.3}]}, {"test_system": "in vitro human saliva microcosm biofilm", "experiment": "Determination of Lactic Acid Release (LAR) after Permanent Exposure Procedure (LDH-NAD-PMS-MTT enzyme assay)", "type": "cell-based", "settings": "Indole 0.1 wt.% in MCM-1% sucrose, about 26 hours biofilm growth, 37 °C, vs untreated control TC0, negative number = release of lactic acid reduced", "experimental": "as §1", "units": {"inhibition at 0.1 %": "%"}, "values": [{"molecule": "O=C(O)Cc1c[nH]c2ccccc12", "note": "[TC3 - IA3, Indole acetic acid]", "inhibition at 0.1 %": 78}]}, {"test_system": "lactic acid producing bacteria in an oral biofilm", "experiment": "not given", "settings": "qualitative statement; amino acids, as described in EP 18183601.6; cited from earlier work", "values": [{"molecule": "N=C(N)NCCC[C@H](N)C(=O)O", "note": "[arginine]", "reducing the lactic-acid release of bacteria in a biofilm": "not effective"}, {"molecule": "N[C@@H](CC(=O)O)C(=O)O", "note": "[aspartic acid]", "reducing the lactic-acid release of bacteria in a biofilm": "not effective"}, {"molecule": "NC(=O)CC[C@H](N)C(=O)O", "note": "[glutamine]", "reducing the lactic-acid release of bacteria in a biofilm": "not effective"}, {"molecule": "NCC(=O)O", "note": "[glycine]", "reducing the lactic-acid release of bacteria in a biofilm": "useful"}, {"molecule": "N[C@@H](Cc1c[nH]cn1)C(=O)O", "note": "[histidine]", "reducing the lactic-acid release of bacteria in a biofilm": "not effective"}, {"molecule": "CC[C@H](C)[C@H](N)C(=O)O", "note": "[isoleucine]", "reducing the lactic-acid release of bacteria in a biofilm": "useful"}, {"molecule": "CC(C)C[C@H](N)C(=O)O", "note": "[leucine]", "reducing the lactic-acid release of bacteria in a biofilm": "useful"}, {"molecule": "NCCCC[C@H](N)C(=O)O", "note": "[lysine]", "reducing the lactic-acid release of bacteria in a biofilm": "useful"}, {"molecule": "CSCC[C@H](N)C(=O)O", "note": "[methionine]", "reducing the lactic-acid release of bacteria in a biofilm": "useful"}, {"molecule": "N[C@@H](Cc1ccccc1)C(=O)O", "note": "[phenylalanine]", "reducing the lactic-acid release of bacteria in a biofilm": "useful"}, {"molecule": "O=C(O)[C@@H]1CCCN1", "note": "[proline]", "reducing the lactic-acid release of bacteria in a biofilm": "not effective"}, {"molecule": "N[C@@H](CO)C(=O)O", "note": "[serine]", "reducing the lactic-acid release of bacteria in a biofilm": "useful"}, {"molecule": "C[C@@H](O)[C@H](N)C(=O)O", "note": "[threonine]", "reducing the lactic-acid release of bacteria in a biofilm": "useful"}, {"molecule": "N[C@@H](Cc1c[nH]c2ccccc12)C(=O)O", "note": "[tryptophan]", "reducing the lactic-acid release of bacteria in a biofilm": "useful"}, {"molecule": "N[C@@H](Cc1ccc(O)cc1)C(=O)O", "note": "[tyrosine]", "reducing the lactic-acid release of bacteria in a biofilm": "not effective"}, {"molecule": "CC(C)[C@H](N)C(=O)O", "note": "[valine]", "reducing the lactic-acid release of bacteria in a biofilm": "useful"}]}]}
